What is called IC50 is the point on the concentration scale where inhibition reaches its midpoint.

The results in this text go back to ChEMBL document CHEMBL4354831, “Novel Cell-Penetrating Peptide Conjugated Proteasome Inhibitors: Anticancer and Antifungal Investigations” (J Med Chem, 2020).

Assay [1] deals with BE(2)-C. In words: Induction of apoptosis in human BE(2)-C cells assessed as apoptotic cells at 2xIC50 after 24 hrs by Alexa flour 488 annexin V/PI- staining based flow cytometric analysis relative to control. It is filed as functional. Background: Flow cytometry measures light scatter and fluorescence of single cells or particles in a stream.
Assay [2] deals with HeLa. In words: Antiproliferative activity against human HeLa cells assessed as reduction in cell viability in presence of cisplatin after 48 hrs by MTT assay. It is filed as functional, cell-based. (In general: Formazan colour is commonly taken as a measure of viable cells.)
Assay [3] deals with HeLa. In words: Induction of membrane disruption in human HeLa cells assessed as red fluorescence at 2xIC50 after 24 hrs by SYTO9/PI-staining based inverted fluorescence microscopic analysis. The conditions noted are these: Cell membrane.
In assay [4] the test system is HeLa. In words: Induction of apoptosis in human HeLa cells assessed as DNA damage at 2xIC50 after 24 hrs by Hoechst-33342 staining based inverted fluorescence microscopic analysis. Format: functional, cell-based.
Assay [5] relates to HeLa. In words: Induction of apoptosis in human HeLa cells assessed as necrotic cells at 2xIC50 after 24 hrs by Alexa flour 488 annexin V/PI- staining based flow cytometric analysis relative to control. Format: functional.
In assay [6] the test system is HeLa. Kind of assay: Antiproliferative activity against human HeLa cells assessed as cell viability at 10.2 uM in presence of 6.3 uM cisplatin after 48 hrs by MTT assay relative to control. It is filed as functional.
The test system of assay [7] is Candida albicans. Kind of assay: Potentiation of amphotericin B-induced antifungal activity against Candida albicans SC5314 assessed as fold reduction in amphotericin MIC after 24 to 48 hrs by checker board assay relative to amphotericin alone. It is filed as functional.
The subject of assay [8] is HeLa. In words: Induction of membrane disruption in human HeLa cells assessed as membrane blebbing at 2xIC50 after 24 hrs by SYTO9/PI-staining based inverted fluorescence microscopic analysis. To be noted: Cell membrane.
In assay [9] the test system is BE(2)-C. Kind of assay: Induction of apoptosis in human BE(2)-C cells assessed as DNA damage at 2xIC50 after 24 hrs by Hoechst-33342 staining based inverted fluorescence microscopic analysis. It is filed as functional, cell-based.
Assay [10] has as its system BE(2)-C. In words: Antiproliferative activity against human BE(2)-C cells assessed as cell viability at 10.3 uM after 48 hrs by MTT assay relative to control. Format: functional. To be noted: read-out: Activity.
In assay [11] the test system is Candida albicans. In words: Synergistic antifungal activity against Candida albicans SC5314 assessed as FICI in presence of amphotericin B after 24 to 48 hrs by checker board assay. It is filed as functional.
Assay [12] concerns HeLa. In words: Antiproliferative activity against human HeLa cells assessed as reduction in cell viability after 48 hrs by MTT assay. It is filed as functional, cell-based.
Assay [13] deals with Candida albicans. In words: Antibiofilm activity against 24 hrs preformed biofilm of Candida albicans SC5314 assessed as biofilm cell eradication at 125 uM after 24 hrs by XTT assay relative to control. Format: functional.
Assay [14] deals with Candida albicans. In words: Antibiofilm activity against Candida albicans SC5314 assessed as inhibition of biofilm formation after 24 hrs by XTT-dye based assay. Format: functional.
The test system of assay [15] is BE(2)-C. In words: Induction of ROS generation in human BE(2)-C cells at 2xIC50 measured up to 24 hrs in presence of ROS quencher, ascorbic acid by DCFH-DA staining based fluorescence analysis. It is filed as functional, cell-based.
In assay [16] the test system is HeLa. In words: Induction of apoptosis in human HeLa cells at 2xIC50 after 24 hrs by Annexin-V alexa fluor 488/PI staining based fluorescence microscopic analysis. Format: functional, cell-based.
Assay [17] deals with HeLa. In words: Antiproliferative activity against human HeLa cells assessed as cell viability at 10.2 uM after 48 hrs by MTT assay relative to control. To be noted: read-out: Activity. It is filed as functional.
In assay [18] the test system is BE(2)-C. In words: Antiproliferative activity against human BE(2)-C cells assessed as cell viability at 10.3 uM in presence of 5.3 uM cisplatin after 48 hrs by MTT assay relative to control. Format: functional.
Assay [19] concerns BE(2)-C. Kind of assay: Ratio of IC50 for antiproliferative activity against human BE(2)-C cells to IC50 for antiproliferative activity against human BE(2)-C cells in presence of cisplatin. Format: functional.
The subject of assay [20] is BE(2)-C. Kind of assay: Induction of membrane disruption in human BE(2)-C cells assessed as red fluorescence at 2xIC50 after 24 hrs by SYTO9/PI-staining based inverted fluorescence microscopic analysis. The conditions noted are these: Cell membrane.
The test system of assay [21] is HeLa. In words: Induction of membrane blebbing in human HeLa cells at 2xIC50 after 12 hrs by SEM analysis. Format: cell-based. To be noted: Cell membrane.
Assay [22] concerns HeLa. In words: Induction of apoptosis in human HeLa cells assessed as DNA damage at 2xIC50 after 24 hrs by SYTO9/PI-staining based inverted fluorescence microscopic analysis. Format: functional, cell-based.
The subject of assay [23] is BE(2)-C. Kind of assay: Antiproliferative activity against human BE(2)-C cells assessed as cell viability at 4.7 uM after 48 hrs by MTT assay relative to control. Format: functional. To be noted: read-out: Activity.
In assay [24] the test system is HeLa. In words: Antiproliferative activity against human HeLa cells assessed as cell viability at 4.7 uM after 48 hrs by MTT assay relative to control. It is filed as functional. To be noted: read-out: Activity.
Assay [25] concerns HeLa. Kind of assay: Antiproliferative activity against human HeLa cells assessed as cell viability at 4.7 uM in presence of 6.3 uM cisplatin after 48 hrs by MTT assay relative to control. Format: functional.
For assay [26], the system named is BE(2)-C. Kind of assay: Antiproliferative activity against human BE(2)-C cells assessed as cell viability at 4.7 uM in presence of 5.3 uM cisplatin after 48 hrs by MTT assay relative to control. Format: functional.
Assay [27] relates to Candida albicans. Kind of assay: Antibiofilm activity against 24 hrs preformed biofilm of Candida albicans SC5314 assessed as biofilm cell eradication at 62.5 uM after 24 hrs by XTT assay relative to control. It is filed as functional.

Molecules are shown by their SMILES. The source made the active and inactive calls. The calls are words filed in the database; no cut-off is given here. Peptide text beside a SMILES is read from it.

Take `CC(=O)N[C@@H](Cc1ccc(O)cc1)C(=O)NCC(=O)N[C@@H](CCCNC(=N)N)C(=O)N[C@@H](CCCCN)C(=O)N[C@@H](CCCCN)C(=O)N[C@@H](CCCNC(=N)N)C(=O)N[C@@H](CCCNC(=N)N)C(=O)N[C@@H](CCC(N)=O)C(=O)N[C@@H](CCCNC(=N)N)C(=O)N[C@@H](CCCNC(=N)N)C(=O)N[C@@H](CCCNC(=N)N)C(=O)NCC(=O)NCC(=O)NCC(=O)N[C@@H](CC(C)C)C(=O)N[C@@H](CC(C)C)C(=O)N[C@H](C=O)CC(C)C` (Ac-YGRKKRRQRRRGGGLLL-aldehyde): the Activity in the assay with BE(2)-C [1] is on record as 27.2%; with HeLa [5] it was 4.8%; in the assay on HeLa [6], 14%; in the assay with Candida albicans [13], over 50%; in the assay on BE(2)-C [18], 13%. Further, the concentration for half-maximal inhibition (IC50) came to 1.9 µM in the assay on HeLa [2] and 10.2 µM with HeLa [12]. For the same compound, the outcome in the assay on HeLa [3], in the assay with HeLa [4], in the assay with HeLa [8], with BE(2)-C [9], with HeLa [16] and in the assay with BE(2)-C [20] was Active. In addition, the outcome in the assay with HeLa [21] and in the assay with HeLa [22] was Active. In addition, the “fold change (FC)” value with Candida albicans [7] is given as 6. Also, the viability at 10.3 µM with BE(2)-C [10] is over 50%. In addition, the “fractional inhibitory concentration index (FICI)” value in the assay with Candida albicans [11] is listed as 0.36. The MBIC in the assay on Candida albicans [14] was found to be 15.6 µM. The result in the assay with BE(2)-C [15] was inactive. The viability at 10.2 µM in the assay on HeLa [17] was found to be 52%. For the same compound, in the assay on BE(2)-C [19], the “Ratio IC50” value was found to be 2.5.
Regarding `CC(=O)N[C@@H](Cc1ccc(O)cc1)C(=O)NCC(=O)N[C@@H](CCCNC(=N)N)C(=O)N[C@@H](CCCCN)C(=O)N[C@@H](CCCCN)C(=O)N[C@@H](CCCNC(=N)N)C(=O)N[C@@H](CCCNC(=N)N)C(=O)N[C@@H](CCC(N)=O)C(=O)N[C@@H](CCCNC(=N)N)C(=O)N[C@@H](CCCNC(=N)N)C(=O)N[C@@H](CCCNC(=N)N)C(=O)NCC(=O)NCC(=O)NCC(=O)N[C@@H](Cc1ccc(O)cc1)C(=O)N[C@@H](CC(C)C)C(=O)N[C@@H](Cc1ccccc1)C(=O)N[C@H](C=O)CC(C)C` (Ac-YGRKKRRQRRRGGGYLFL-aldehyde), the Activity with BE(2)-C [1] is on record as 28.3%; in the assay on HeLa [5], 2.8%; in the assay with HeLa [25], 18%; with BE(2)-C [26] it was 11%; in the assay on Candida albicans [27] it was over 50%. The IC50 with HeLa [2] came to 1.16 µM; with HeLa [12], 4.7 µM. The result in the assay on HeLa [3], in the assay with HeLa [4], in the assay with HeLa [8], in the assay on BE(2)-C [9], in the assay on HeLa [16] and in the assay on BE(2)-C [20] was Active. Also, the result with HeLa [21] and with HeLa [22] was Active. Moreover, the viability at 4.7 µM in the assay with BE(2)-C [23] and in the assay with HeLa [24] was over 50% throughout. The “fold change (FC)” value in the assay with Candida albicans [7] was 6. In addition, in the assay on Candida albicans [11], the “fractional inhibitory concentration index (FICI)” value was found to be 0.35. For the same compound, the MBIC in the assay on Candida albicans [14] is 7.8 µM. The result in the assay on BE(2)-C [15] was inactive. Further, the “Ratio IC50” value in the assay with BE(2)-C [19] worked out at 4.
